{"source": "paper PMC2119004", "about": "(The Journal of Experimental Medicine, 1991)", "key": {"I-Ad [1]": {"molecular_target": "I-Ad (Mus musculus, UniProt P01921+P04228)", "test": "Inhibition of biotin-Myo", "assay_type": "binding", "details": "Fig. 7a; 1 mM DTT, 48 h"}, "[2]": {"test_system": "insulin-immune or A(1-14)-immune H-2d and H-2b lymph node lymphocytes", "test": "Lymph node proliferation assay", "assay_type": "cell-based, mouse", "details": "Fig. 6a,b; INS-primed BALB/c or C57BL/10 (H-2d, H-2b); 4 d, [3H]thymidine"}, "[3]": {"test_system": "Bb-6 and Bd-l.4 T cell hybridomas", "test": "Stimulation of T cell hybridomas in the presence of live APC", "assay_type": "cell-based, mouse", "details": "Fig. 2; for stimulation of T cells in the presence of live APC (in words): live TH2.2, serum-containing media, 24 h, HT-2 lymphokine assay"}, "[4]": {"test_system": "Bb-6 and Bd-l.4 T cell hybridomas", "test": "Stimulation of T cell hybridomas by fixed APC", "assay_type": "cell-based, mouse", "details": "for requirement of DTT for presentation by fixed APC (in words): Fig. 4, fixed TH2.2, 18 h at 37°C, 0.15 M citrate/phosphate, pH 5 (A(1-14) forms) or pH 6 (sulfonated A chain), ± 2 mM DTT"}, "I-Ed [5]": {"molecular_target": "T1, I-Ed (Mus musculus, UniProt P01904+P01915)", "T1 sequence (P01904 whole entry, looked up)": "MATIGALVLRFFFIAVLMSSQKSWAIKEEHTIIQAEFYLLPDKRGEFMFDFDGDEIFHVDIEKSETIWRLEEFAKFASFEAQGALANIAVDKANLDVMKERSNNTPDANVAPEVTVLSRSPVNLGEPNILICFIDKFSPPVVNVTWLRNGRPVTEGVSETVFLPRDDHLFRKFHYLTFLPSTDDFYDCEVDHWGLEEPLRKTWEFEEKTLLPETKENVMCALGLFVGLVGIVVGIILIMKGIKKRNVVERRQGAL", "T1 sequence (P01915 whole entry, looked up)": "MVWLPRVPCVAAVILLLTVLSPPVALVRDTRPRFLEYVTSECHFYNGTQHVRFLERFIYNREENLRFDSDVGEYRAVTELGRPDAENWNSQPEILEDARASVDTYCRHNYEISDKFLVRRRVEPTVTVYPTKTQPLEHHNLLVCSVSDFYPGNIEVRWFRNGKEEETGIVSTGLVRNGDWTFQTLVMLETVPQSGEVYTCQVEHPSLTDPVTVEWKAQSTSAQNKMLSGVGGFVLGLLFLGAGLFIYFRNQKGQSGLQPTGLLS", "test": "Inhibition of biotin-HEL", "assay_type": "binding", "details": "Fig. 8b; 2 µM biotin-HEL(104-120)"}, "I-Ed [6]": {"molecular_target": "T1, I-Ed", "test": "Binding of alkylated HEL", "details": "data not shown"}, "[7]": {"test_system": "I-Ab-restricted beef insulin-reactive T cell clones", "details": "large panel of I-Ab-restricted beef insulin-reactive T cell clones; cited from earlier work"}, "apamin-specific T cells": {"test_system": "apamin-specific T cells", "details": "live APC; reduced and alkylated apamin; cited from earlier work"}, "I-Ad [8]": {"molecular_target": "T2, I-Ad (Mus musculus, UniProt P01921+P04228)", "T2 sequence (P01921 whole entry, looked up)": "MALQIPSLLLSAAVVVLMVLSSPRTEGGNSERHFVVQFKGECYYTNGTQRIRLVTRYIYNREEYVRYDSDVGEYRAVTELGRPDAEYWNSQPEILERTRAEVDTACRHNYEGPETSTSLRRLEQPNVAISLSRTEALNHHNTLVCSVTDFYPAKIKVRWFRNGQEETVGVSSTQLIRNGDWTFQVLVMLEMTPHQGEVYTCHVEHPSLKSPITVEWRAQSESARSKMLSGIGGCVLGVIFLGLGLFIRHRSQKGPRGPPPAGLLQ", "T2 sequence (P04228 whole entry, looked up)": "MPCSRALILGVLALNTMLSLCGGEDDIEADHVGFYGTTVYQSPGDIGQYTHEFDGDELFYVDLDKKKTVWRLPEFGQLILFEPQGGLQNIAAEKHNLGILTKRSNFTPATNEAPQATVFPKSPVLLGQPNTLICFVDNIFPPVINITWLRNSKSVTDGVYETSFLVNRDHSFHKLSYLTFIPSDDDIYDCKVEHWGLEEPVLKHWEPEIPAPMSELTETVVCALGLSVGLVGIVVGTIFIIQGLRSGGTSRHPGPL", "test": "Binding of biotinylated insulin to purified I-Ad", "details": "preliminary, data not shown; absence of reduction"}, "[9]": {"test_system": "Bd-l.4 T cell hybridoma (I-Ad-restricted)", "details": "cited from earlier work"}, "[10]": {"test_system": "Bb-6 T cell hybridoma (I-Ab-restricted)", "details": "cited from earlier work"}}, "note": "Ends that are not written are not given here."}
{"compound": "O[C@@H](CS)[C@@H](O)CS", "note": "(racemic) [DTT, dithiothreitol]", "values": [{"measurement": "inhibition of peptide binding by DTT alone (in words)", "setting": "I-Ad [1]", "result": "did not inhibit peptide binding"}]}
{"compound": "FVNQHLCGSHLVEALYLVCG- ERGFFYTPKA [B(1-30)]", "values": [{"measurement": "proliferation of beef insulin-immune lymphocytes (in words)", "setting": "[2]", "result": "but not to B chain"}]}
{"compound": "GIVEQCCASVCSLY [A(1-14)]", "values": [{"measurement": "stimulation of T cells in the presence of live APC (in words)", "setting": "[3]", "result": "essentially inactive"}, {"measurement": "potency relative to insulin/DTT with fixed APC (in words)", "setting": "[4]; Fig. 3, fixed TH2.2", "result": "equivalent"}, {"measurement": "inhibition of biotin-HEL(104-120) binding to I-Ed (in words)", "setting": "I-Ed [5]", "result": "only at relatively high"}]}
{"compound": "GMNAWVAWRNRC- KGTDVY [HEL(104-120)]", "values": [{"measurement": "effect of sulfhydryl alkylation on binding to I-Ed (in words)", "setting": "I-Ed [6]", "result": "does not affect its capacity to bind purified FEd"}]}
{"compound": "INS: Beef insulin purchased from Elanco Products Co.", "values": [{"measurement": "molar excess of DTT to insulin disulfides at optimal response", "setting": "[4]; Fig. 1b, fixed TH2.2, 33 µM INS", "result": "~10", "unit": "fold"}, {"measurement": "DTT concentration for optimal T cell responses", "setting": "[4]; Fig. 1b, fixed TH2.2, 18 h at 37°C in PBS, 33 µM INS", "result": "0.1 to 1", "unit": "mM"}, {"measurement": "activation of T cells by fixed APC exposed to antigen and DTT (in words)", "setting": "[4]; fixed TH2.2, overnight, 2 mM DTT", "result": "able to activate Bb-6 and Bd-l.4 T cells"}]}
{"compound": "Sulfonated A chain: sulfonated A chain of beef insulin purified from sulfonated insulin by reverse-phase HPLC", "values": [{"measurement": "fold lower concentration of intact insulin giving comparable stimulation", "setting": "[3]; live APC, both I-Ab- and I-Ad-restricted T cells", "result": "3-10 fold"}, {"measurement": "requirement of DTT for presentation by fixed APC (in words)", "setting": "[4]", "result": "in the presence, but not the absence, of DTT were capable of stimulating Bd-l.4 and Bb-6"}, {"measurement": "fraction of T cell clones responding to sulfonated A chain but not performic acid-oxidized insulin", "setting": "[7]", "result": "> 90", "unit": "%"}]}
{"compound": "air oxidized A(1-14): air-oxidized form of A(1-14) (GIVEQCCASVCSLY; disulfide (positions not given here); also: air-oxidized, interchain disulfides; UniProt P01317 85-98, looked up, fragment)", "values": [{"measurement": "requirement of DTT for presentation by fixed APC (in words)", "setting": "[4]", "result": "disulfide reduction was required for presentation"}]}
{"compound": "apamin", "values": [{"measurement": "T cells failing to recognize apamin after reduction and alkylation", "setting": "apamin-specific T cells", "result": "3/16"}]}
{"compound": "biotinylated insulin: biotinylated insulin", "values": [{"measurement": "binding of biotinylated insulin to I-Ad without reduction (in words)", "setting": "I-Ad [8]", "result": "can bind to I-Ad"}]}
{"compound": "oxlNS: Performic acid-oxidized beef insulin", "values": [{"measurement": "stimulation of T cells in the presence of live APC (in words)", "setting": "[3]", "result": "do not stimulate these T cells"}]}
{"compound": "pork insulin: pork insulin", "values": [{"measurement": "recognition by Bd-l.4 (in words)", "setting": "[9]", "result": "partiallycrossreactivewith pork insulin"}, {"measurement": "recognition by Bb-6 (in words)", "setting": "[10]", "result": "but not pork, insulin"}]}
{"compound": "purified A chain from oxlNS: purified A chain from oxINS insulin", "values": [{"measurement": "stimulation of T cells in the presence of live APC (in words)", "setting": "[3]", "result": "do not stimulate these T cells"}]}
{"compound": "rcamlNS: reduced and carboxyamidomethylated beef insulin", "values": [{"measurement": "stimulation of T cells in the presence of live APC (in words)", "setting": "[3]", "result": "do not stimulate these T cells"}]}
